# Assays:
# SpCas9 [1] = molecular target: T1, SpCas9 (Streptococcus pyogenes serotype M1, UniProt Q99ZW2); assay: HiBiT knock-in assay, SpCas9, HEK293T cells; type: cell-based
# Text: Primary and secondary screening. The primary screen assayed a selection of unique chemical scaffolds derived from commercially available compounds and known bioactive molecular libraries (Table 7). Auto-fluorescent compounds were removed by a counter screen. Overall, the CAA was used to assay 122,409 small molecules with over 2,500 unique chemical scaffolds (FIG. 64F, Table 7). Of these compounds, 547 were selected as hits (Z score >3 in both replicates) for testing in orthogonal cell-based secondary assays. Hits were tested in duplicate in an eGFP disruption assay, wherein U2OS.eGFP.PEST cells^33 transfected with SpCas9 plasmid and eGFP-targeting gRNA plasmid were incubated with 20 μM of the compounds. In this assay, any compound that inhibited SpCas9 would rescue the loss of eGFP fluorescence. Here, toxic and auto-fluorescent compounds with a high GFP signal in cells were removed as false positives. […] Next, Applicants tested the 15 compounds in a luminescence-based gain-of-signal HiBiT knock-in assay, which involves SpCas9-mediated homology-directed tagging of GAPDH with a short peptide that luminesces upon complementation with a subunit derived from nanoluciferase.^34 Complementarily, the eGFP-disruption assay is fluorescence-based and involves error-prone DNA repair. As a counter-screen to remove false positives caused by cell death (viability <80%), the cell viability was measured after incubation.
# Approximately 400,000 HEK293T cells were nucleofected with 400 ng of SpCas9 plasmid, 40 ng of GAPDH-targeting gRNA plasmid, and 40 pmol of single-strand oligodeoxynucleotide (ssODN) using SF Cell Line 4D-Nucleofector X Kit (Lonza) following the pulse program of DS-150. For RNP-based genome editing, 10 pmol of Cas9 and 12 pmol of gRNA were mixed and incubated for 5 min. Then, 20 pmol of ssODN was added. Cells were nucleofected with the resulting mixture using the same pulse program. Cells were then transferred to a 96-well plate at the density of 35,000 cells per well, and incubated with indicated amount of compounds for 24 h. Cell viability was measured using PrestoBlue reagent (Thermo) with a SpectraMax M5 (Molecular Devices) at the excitation and emission wavelength of 544 nm and 590 nm, respectively. Next, luminescence measurement was performed using the Nano-Glo HiBiT Lytic Detection System (Promega) according to the manufacturer's protocol with an EnVision Multilabel Plate Reader (PerkinElmer) at the integration time of 0.5 s per well. The resulting luminescence signals were normalized based on the cell viability.^34
# SpCas9 [2] = molecular target: T1, SpCas9; assay: eGFP disruption assay, SpCas9, U2OS.eGFP.PEST cells; type: cell-based; conditions: for % GFP+, Rep 1 / Z score Rep1 / Normalized Z rep1: replicate 1; for % GFP+, Rep 2 / Z socre Rep2 / Normalized Z rep2: replicate 2; for SpCas9 eGFP disruption Rep1: replicate 1, raw readout; for SpCas9 eGFP disruption Rep1 / SpCas9 eGFP disruption Rep2: Cas9 = lower control, Ctrl = upper control; for Normalized Z rep1 / Normalized Z rep2: lower control about 0, upper control about 1; for SpCas9 eGFP disruption Rep2: replicate 2, raw readout
# Method in brief: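 Rescue of eGFP signal lost through Cas9-induced NHEJ indels serves as the inhibition read-out, after 24 h compound exposure (20 μM for hits, variable for dose-response). Editing was delivered by nucleofection into U2OS.eGFP.PEST cells as SpCas9/gRNA plasmids (300/30 ng) or RNP (10/12 pmol). Toxic and autofluorescent compounds were excluded.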
# SpCas9 [3] = molecular target: T1, SpCas9; assay: Strand displacement assay (SDA) / cumulative activity assay (CAA), SpCas9 primary screen; type: biochemical; conditions: Primary Screen (150 min); for Normalized Z score 1: replicate 1; for Normalized Z score 2: replicate 2
# Method in brief: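 SpCas9:gRNA RNP in 20 mM Tris-HCl pH 7.5, 100 mM KCl, 5 mM MgCl2 was used at 10 nM (2× stock) with Alexa Fluor 647-labelled substrate and excess quencher strand (1 nM and 5 nM, 2× stocks). Fluorescence was read after 2.5 h at 37 °C, where cleavage lets the quencher strand anneal.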
# [4] = tested on: restriction endonuclease Nde1; assay: Gel cleavage specificity assay, Nde1; type: biochemical; conditions: 20 uM
# FnCpf1 = FnCpf1 (Francisella tularensis subsp. novicida, UniProt A0Q7Q2); type: biochemical; conditions: 20 uM
# Sequence of FnCpf1 (A0Q7Q2 whole entry, looked up): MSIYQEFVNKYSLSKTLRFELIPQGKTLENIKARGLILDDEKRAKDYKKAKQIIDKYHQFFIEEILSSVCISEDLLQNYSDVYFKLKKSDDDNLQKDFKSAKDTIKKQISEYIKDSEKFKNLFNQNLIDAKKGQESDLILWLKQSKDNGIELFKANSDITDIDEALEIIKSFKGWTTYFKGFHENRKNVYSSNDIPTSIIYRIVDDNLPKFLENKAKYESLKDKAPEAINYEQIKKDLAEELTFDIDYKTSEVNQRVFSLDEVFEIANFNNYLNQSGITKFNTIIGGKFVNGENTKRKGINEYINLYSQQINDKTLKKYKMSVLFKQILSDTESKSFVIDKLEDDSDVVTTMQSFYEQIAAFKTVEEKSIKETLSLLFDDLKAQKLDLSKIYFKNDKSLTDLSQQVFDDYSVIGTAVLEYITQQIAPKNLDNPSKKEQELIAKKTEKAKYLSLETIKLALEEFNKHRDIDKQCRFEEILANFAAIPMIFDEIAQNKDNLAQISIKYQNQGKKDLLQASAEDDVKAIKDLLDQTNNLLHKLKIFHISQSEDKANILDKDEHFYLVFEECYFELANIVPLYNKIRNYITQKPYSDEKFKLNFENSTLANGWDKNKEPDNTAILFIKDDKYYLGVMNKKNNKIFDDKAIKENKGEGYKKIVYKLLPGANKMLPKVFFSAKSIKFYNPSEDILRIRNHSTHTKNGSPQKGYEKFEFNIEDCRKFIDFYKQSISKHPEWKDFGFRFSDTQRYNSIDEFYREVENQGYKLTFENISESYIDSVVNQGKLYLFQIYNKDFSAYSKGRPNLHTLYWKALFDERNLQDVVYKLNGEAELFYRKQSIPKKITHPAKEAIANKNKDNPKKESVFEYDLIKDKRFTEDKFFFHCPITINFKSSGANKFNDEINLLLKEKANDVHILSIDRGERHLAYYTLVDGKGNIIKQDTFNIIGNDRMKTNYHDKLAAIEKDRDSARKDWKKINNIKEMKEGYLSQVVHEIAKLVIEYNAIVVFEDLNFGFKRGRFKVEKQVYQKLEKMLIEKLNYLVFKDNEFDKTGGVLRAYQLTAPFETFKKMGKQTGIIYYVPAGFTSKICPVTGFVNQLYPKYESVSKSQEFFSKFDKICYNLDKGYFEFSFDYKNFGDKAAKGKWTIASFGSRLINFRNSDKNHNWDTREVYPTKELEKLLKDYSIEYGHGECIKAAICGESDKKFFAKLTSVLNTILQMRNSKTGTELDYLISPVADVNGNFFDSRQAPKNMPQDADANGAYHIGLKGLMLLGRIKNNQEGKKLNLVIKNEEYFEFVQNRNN
# SpCas9:gRNA complex [5] = molecular target: T2, SpCas9:gRNA complex (Streptococcus pyogenes serotype M1, UniProt Q99ZW2); assay: biochemical
# T2 sequence (Q99ZW2 whole entry, one chain of several): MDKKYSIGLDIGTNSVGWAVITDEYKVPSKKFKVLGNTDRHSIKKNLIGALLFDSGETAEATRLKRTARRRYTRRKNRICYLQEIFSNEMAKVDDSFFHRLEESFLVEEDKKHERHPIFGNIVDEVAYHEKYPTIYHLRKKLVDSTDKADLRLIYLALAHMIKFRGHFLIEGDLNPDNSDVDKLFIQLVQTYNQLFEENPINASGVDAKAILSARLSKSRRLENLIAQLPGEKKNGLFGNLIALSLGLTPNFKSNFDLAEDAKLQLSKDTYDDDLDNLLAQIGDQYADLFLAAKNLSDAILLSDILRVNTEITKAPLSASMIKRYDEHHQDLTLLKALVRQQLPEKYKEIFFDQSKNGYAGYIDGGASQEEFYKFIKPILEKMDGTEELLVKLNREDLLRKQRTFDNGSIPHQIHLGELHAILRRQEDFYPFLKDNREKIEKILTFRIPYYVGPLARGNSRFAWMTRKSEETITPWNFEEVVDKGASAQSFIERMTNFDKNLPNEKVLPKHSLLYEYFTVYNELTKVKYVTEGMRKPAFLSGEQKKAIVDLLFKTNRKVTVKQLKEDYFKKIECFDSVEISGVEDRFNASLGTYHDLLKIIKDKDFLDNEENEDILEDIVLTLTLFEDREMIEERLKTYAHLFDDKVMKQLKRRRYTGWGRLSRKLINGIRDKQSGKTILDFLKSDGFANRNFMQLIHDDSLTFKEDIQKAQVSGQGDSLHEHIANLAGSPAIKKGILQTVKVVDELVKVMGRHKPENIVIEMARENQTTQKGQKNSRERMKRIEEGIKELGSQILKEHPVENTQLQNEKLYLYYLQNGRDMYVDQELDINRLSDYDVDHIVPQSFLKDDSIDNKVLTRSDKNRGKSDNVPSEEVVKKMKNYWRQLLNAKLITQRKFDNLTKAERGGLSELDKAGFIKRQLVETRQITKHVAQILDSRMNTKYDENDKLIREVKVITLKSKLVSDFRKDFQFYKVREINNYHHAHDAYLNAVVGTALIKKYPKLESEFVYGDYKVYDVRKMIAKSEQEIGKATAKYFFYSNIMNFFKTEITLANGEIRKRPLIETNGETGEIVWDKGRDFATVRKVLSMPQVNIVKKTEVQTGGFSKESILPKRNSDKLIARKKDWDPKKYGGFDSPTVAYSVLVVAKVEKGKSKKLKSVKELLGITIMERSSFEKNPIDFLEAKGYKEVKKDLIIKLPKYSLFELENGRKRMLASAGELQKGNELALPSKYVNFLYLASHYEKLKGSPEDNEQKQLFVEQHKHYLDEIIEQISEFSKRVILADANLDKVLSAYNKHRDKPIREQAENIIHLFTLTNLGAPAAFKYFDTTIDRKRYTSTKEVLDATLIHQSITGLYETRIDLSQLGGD
# SpCas9:gRNA complex [6] = molecular target: T2, SpCas9:gRNA complex; conditions: control without BRD7586 scaffold
# T1 sequence (Q99ZW2 whole entry): as the sequence (Q99ZW2 whole entry, one chain of several) above
SMILES,Hibit assay-% inhibition (SpCas9 [1]),eGFP disruption-% inhibition (SpCas9 [2]),"% GFP+, Rep 1 (SpCas9 [2]; eGFP assay)",Z score Rep1 (SpCas9 [2]; eGFP assay),"% GFP+, Rep 2 (SpCas9 [2]; eGFP assay)",Z score Rep1 (SpCas9 [2]),SpCas9 eGFP disruption Rep1 (SpCas9 [2]),Normalized Z rep1 (SpCas9 [2]),Z socre Rep2 (SpCas9 [2]),SpCas9 eGFP disruption Rep2 (SpCas9 [2]),Normalized Z rep2 (SpCas9 [2]),Average Normalized Z score (SpCas9 [3]),avg z score primary (SpCas9 [3]),Normalized Z score 1 (SpCas9 [3]),Normalized Z score 2 (SpCas9 [3]),Activity against Nde1 in gel cleavage assay [4],Activity against FnCpf1 in gel cleavage assay (FnCpf1),Average Normalized Z score (SpCas9 [3]; average of replicates),Kd (SpCas9:gRNA complex [5]),Binding in BLI (SpCas9:gRNA complex [6])
O=C(CCS(=O)(=O)c1ccc(Cl)cc1)Nc1nc(-c2ccccn2)cs1 [Compound G786-1324],94.5%,32.94%,81.43%,3.12,79.94%,3.12,81.427,0.30,4.86,79.939,0.21,0.05,4.44,0.05,0.04,,,,,
O=C(CCS(=O)(=O)c1ccc(Cl)cc1)Nc1nc(-c2ccncc2)cs1 [Compound G786-1325],97.09%,56.65%,86.01%,5.65,86.24%,5.65,86.012,0.54,12.44,86.243,0.54,0.04,4.35,0.05,0.04,,,,,
Cc1ccccc1C(=O)Nc1nc2ccc(S(N)(=O)=O)cc2s1 [Compound G786-1547],4.3%,42.41%,82.8%,3.88,84.09%,3.88,82.802,0.37,9.85,84.086,0.43,0.04,3.81,0.04,0.04,,,,,
CCc1cccc(-n2nnnc2N2CCN(C(=O)Nc3cccc(C)c3)CC2)c1 [Compound L378-0350],,,,,,,,,,,,,,,,not Nde1,active in Fncpf1,,,
CCc1cccc(-n2nnnc2N2CCN(C(=O)Nc3ccc(C)cc3C)CC2)c1 [Compound L378-0355],,,,,,,,,,,,,,,,not Nde1,active in Fncpf1,,,
CCc1cccc(-n2nnnc2N2CCN(C(=O)Nc3ccc(Br)c(C)c3)CC2)c1 [Compound L378-0372],,,,,,,,,,,,,,,,not Nde1,active in Fncpf1,,,
CCN1C(=O)c2cccc3cccc1c23 [Compound T0503-6911],18.06%,26.33%,67.52%,3.76,66.59%,3.76,67.522,0.26,6.09,66.588,0.29,,6.86,0.06,0.10,,,0.08,,
NC1=C(c2nc3ccccc3s2)C(=O)CN1N=Cc1ccc(-c2ccc(S(=O)(=O)Nc3ncccn3)cc2)o1 [Compound T5371551],−12.66%,22.88%,64.28%,2.50,76.75%,2.50,64.278,0.17,11.57,76.754,0.56,,9.04,0.61,0.58,,,0.60,,
Cc1nc2ccccc2c(C)c1CC(=O)N1CCN(c2ccc(O)cc2)CC1 [Compound T5461482],36.6%,24.48%,66.84%,3.50,67.11%,3.50,66.842,0.24,6.37,67.113,0.31,,3.23,0.09,0.10,,,0.10,,
O=C(CSc1nccn1-c1cccc(F)c1)N1CCN(c2ccc(O)cc2)CC1 [Compound T5535170],68.25%,27.53%,67.96%,3.93,65.34%,3.93,67.964,0.28,5.41,65.339,0.26,,4.37,0.28,0.33,,,0.31,,
O=C(CCCCC1SC[C@H]2NC(=O)N[C@@H]12)NCCOCCOCCOCCC(=O)NCCOc1ccc(S(=O)(=O)CCC(=O)Nc2nc(-c3ccncc3)cs2)cc1 (some centres unmarked) [biotin-BRD7586],,,,,,,,,,,,,,,,,,,520 nM,
[N-]=[N+]=NCCOCCOCCOCCNC(=O)CCCC[C@@H]1SC[C@@H]2NC(=O)N[C@@H]21 [biotin-PEG3-azide],,,,,,,,,,,,,,,,,,,,No detectable binding
